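Step 1: Grow cells in 96-well plates. Step 2: Expose to compound for 48 hours at 5 concentrations. Step 3: Interpolate endpoints linearly; if unreached, use highest concentration. Abbreviation: GI50, concentration required for 50% inhibition of growth. TGI: total growth inhibition.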
Assays:
Assay in all cases: DTP human tumour cell line panel, 48 h
PC-3 prostate = tested on: PC-3 prostate
DU-145 prostate = tested on: DU-145 prostate
T-47D breast = tested on: T-47D breast
ACHN renal = tested on: ACHN renal
BT-549 breast = tested on: BT-549 breast
SF-539 CNS = tested on: SF-539 CNS
NCI-H460 lung = tested on: NCI-H460 lung
NCI-H226 lung = tested on: NCI-H226 lung
UACC-62 melanoma = tested on: UACC-62 melanoma
DMS 273 small cell lung = tested on: DMS 273 small cell lung
DLD-1 colon = tested on: DLD-1 colon

SMILES | TGI (PC-3 prostate) [µM] | TGI (DU-145 prostate) [µM] | TGI (T-47D breast) [µM] | TGI (ACHN renal) [µM] | TGI (BT-549 breast) [µM] | TGI (SF-539 CNS) [µM] | TGI (NCI-H460 lung) [µM] | TGI (NCI-H226 lung) [µM] | TGI (UACC-62 melanoma) [µM] | GI50 (PC-3 prostate) [nM] | GI50 (DU-145 prostate) [nM] | GI50 (NCI-H460 lung) [nM] | GI50 (T-47D breast) [nM] | GI50 (BT-549 breast) [nM] | TGI (DMS 273 small cell lung) [µM] | TGI (DLD-1 colon) [µM] | GI50 (SF-539 CNS) [nM] | GI50 (ACHN renal) [nM] | GI50 (NCI-H226 lung) [nM] | GI50 (UACC-62 melanoma) [nM]
O=C1Nc2ccc(Cl)cc2/C1=C\c1c(Cl)nc2sccn12 | > 100 | > 100 | > 100 | > 100 | > 100 | – | – | – | – | – | – | – | – | – | – | – | – | – | – | –
COC(=O)N1CC2C3C4CC(C(c5ccccc5)=C4c4ccccc4)C3C21 (centres undefined) | 69.3 | 34.5 | 32.9 | 52.3 | 31.4 | 32 | 32.2 | 29.6 | 27 | – | – | – | – | – | – | – | – | – | – | –
Cc1ccc(N(CC(=O)Nc2ccc(S(=O)(=O)N3CCC(N4CCCC4)CC3)cc2)S(=O)(=O)c2ccc(Cl)cc2)cc1 | 4.05 | 3.4 | 3.91 | – | 3.31 | – | 3.43 | – | – | 1880 | 1760 | 1750 | 1740 | 1680 | – | – | – | – | – | –
CC(=O)NC1=C[C@@H]([C@H]2COC(C)(C)O2)OC1=O | – | – | – | – | – | > 100 | > 100 | > 100 | > 100 | – | – | – | – | – | > 100 | > 100 | – | – | – | –
O=C(Nc1ccc(-n2ccc3c(NC(=O)c4ccccc4)ncnc32)cc1)Nc1cccc(Cl)c1Cl | 1.57 | 3.85 | 9.22 | 4.06 | – | 5.69 | – | 4.87 | 3.29 | 582 | 1470 | – | 2170 | – | – | – | 1120 | 1350 | 1070 | 1020
CCOC(=O)CC1(c2cccc3ccccc23)OC(=O)c2ccccc21 (centres undefined) | – | – | – | > 100 | – | – | > 100 | > 100 | > 100 | – | – | – | – | – | > 100 | > 100 | – | – | – | –
C=C(OC1C(C)=C2C(C1OC(=O)CCCCCCC)C(C)(OC(C)=O)CC(OC(=O)CCC)C1(O)C2OC(=O)C1(C)O)/C(C)=C/C (centres undefined) | – | – | – | – | – | 8.01 | 0.046 | 0.226 | 0.0273 | – | – | < 0.1 | – | – | 0.453 | 16.4 | < 0.1 | – | < 0.1 | –
